BindingDB's records for doi:10.1016/j.bmc.2005.11.005 (Wyeth Research, 2006)

How the values were obtained:
[1] = biological target: T1, Tyrosine-protein phosphatase non-receptor type 1 [1-298] (Homo sapiens, UniProt P18031); assay: Enzymatic Assay
T1 construct: 1-298
T1 sequence (P18031 whole entry): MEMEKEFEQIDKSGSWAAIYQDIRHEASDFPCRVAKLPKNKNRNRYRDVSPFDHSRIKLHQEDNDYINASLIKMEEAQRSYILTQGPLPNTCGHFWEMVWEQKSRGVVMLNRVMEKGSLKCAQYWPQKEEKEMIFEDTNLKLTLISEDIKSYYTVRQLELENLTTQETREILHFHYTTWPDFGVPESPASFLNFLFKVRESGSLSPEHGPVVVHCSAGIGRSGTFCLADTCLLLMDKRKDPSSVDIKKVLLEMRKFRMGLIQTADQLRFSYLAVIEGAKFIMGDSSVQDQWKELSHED
Procedure: (§1) The enzymatic assay was carried out at room temperature in 96-well plates. […] All the assays were carried out in duplicate or triplicate and the average results are presented. Ki is derived from IC50 based on competitive inhibition Ki = IC50 x Km/ (Km + [substrate]).

[2] = biological target: T2, Tyrosine-protein phosphatase non-receptor type 2 (Homo sapiens, UniProt P17706); assay: Enzymatic Assay; details: 25 °C
T2 sequence (P17706 whole entry): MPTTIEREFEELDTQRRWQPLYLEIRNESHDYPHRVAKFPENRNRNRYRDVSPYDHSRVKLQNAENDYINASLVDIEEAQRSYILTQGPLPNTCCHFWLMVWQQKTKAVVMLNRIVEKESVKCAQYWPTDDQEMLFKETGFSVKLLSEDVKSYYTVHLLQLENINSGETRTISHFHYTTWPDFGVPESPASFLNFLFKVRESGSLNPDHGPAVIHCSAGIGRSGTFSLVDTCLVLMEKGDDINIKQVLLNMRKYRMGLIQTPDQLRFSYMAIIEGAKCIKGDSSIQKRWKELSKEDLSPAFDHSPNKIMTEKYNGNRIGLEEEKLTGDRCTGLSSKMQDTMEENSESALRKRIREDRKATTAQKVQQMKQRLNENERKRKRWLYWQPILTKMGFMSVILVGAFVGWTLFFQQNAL
Procedure: as §1

Structure (SMILES) | Ki ([1]; pH 7, 22 °C) [µM] | Ki ([1]; 25 °C) [µM] | further results
CC(Oc1c(C(=O)O)sc2cc(Cl)ccc12)C(=O)O (centres undefined) [3-(1-carboxyethoxy)-6-chloro-1-benzothiophene-2-carboxylic acid] | > 2500 |  | 
O=C(O)COc1c(C(=O)O)sc2ccccc12 [3-(carboxymethoxy)-1-benzothiophene-2-carboxylic acid] | 160 |  | 
O=C(O)COc1c(C(=O)O)sc2cc(-c3ccc(O)cc3)ccc12 [3-(carboxymethoxy)-6-(4-hydroxyphenyl)-1-benzothiophene-2-carboxylic acid] | 26 |  | 
O=C(O)COc1c(C(=O)O)sc2cc(-c3cccs3)ccc12 [3-(carboxymethoxy)-6-(thiophen-2-yl)-1-benzothiophene-2-carboxylic acid] | 30 |  | 
O=C(O)COc1c(C(=O)O)sc2cc(C(=O)Nc3ccn(-c4ccccc4)n3)ccc12 [3-(carboxymethoxy)-6-[(1-phenyl-1H-pyrazol-3-yl)carbamoyl]-1-benzothiophene-2-carboxylic acid] | 20 |  | 
O=C(O)COc1c(C(=O)O)sc2cc(Cl)ccc12 [3-(carboxymethoxy)-6-chloro-1-benzothiophene-2-carboxylic acid] | 61 |  | 
Cc1cc2sc(C(=O)O)c(OCC(=O)O)c2cn1 [3-(carboxymethoxy)-6-methylthieno[3,2-c]pyridine-2-carboxylic acid] | > 2500 |  | 
O=C(O)COc1c(C(=O)O)sc2cc(-c3ccccc3)ccc12 [3-(carboxymethoxy)-6-phenyl-1-benzothiophene-2-carboxylic acid] | 128 |  | 
O=C(O)COc1c(C(=O)O)sc2c(Cl)cccc12 [3-(carboxymethoxy)-7-chloro-1-benzothiophene-2-carboxylic acid] |  | 119 | 
Cc1cccc2c(OCC(=O)O)c(C(=O)O)sc12 [3-(carboxymethoxy)-7-methyl-1-benzothiophene-2-carboxylic acid] |  | 37 | 
O=C(O)COc1c(C(=O)O)oc2ncccc12 [3-(carboxymethoxy)furo[2,3-b]pyridine-2-carboxylic acid] | > 2500 |  | 
O=C(O)COc1cc2ccccc2cc1C(=O)O [3-(carboxymethoxy)naphthalene-2-carboxylic acid] | 860 |  | 
O=C(O)COc1c(C(=O)O)sc2cccnc12 [3-(carboxymethoxy)thieno[3,2-b]pyridine-2-carboxylic acid] | 77 |  | 
O=C(O)COc1c(C(=O)O)sc2ccsc12 [3-(carboxymethoxy)thieno[3,2-b]thiophene-2-carboxylic acid] | 280 |  | 
O=C(O)c1sc2cc(Cl)ccc2c1OC(F)C(=O)O (centres undefined) [3-[carboxy(fluoro)methoxy]-6-chloro-1-benzothiophene-2-carboxylic acid] | 52 |  | 
O=C(O)COc1c(C(=O)O)sc2c1sc1ccccc12 [5-(carboxymethoxy)-3,7-dithiatricyclo[6.4.0.0^{2,6}]dodeca-1(8),2(6),4,9,11-pentaene-4-carboxylic acid] |  | 9.2 | Ki [2]: 4.1 µM
O=C(O)COc1c(C(=O)O)sc2c1cnc1ccccc12 [5-(carboxymethoxy)-3-thia-8-azatricyclo[7.4.0.0^{2,6}]trideca-1(9),2(6),4,7,10,12-hexaene-4-carboxylic acid] |  | > 500 | 
O=C(O)COc1c(C(=O)O)sc2c1ccc1ccccc12 [5-(carboxymethoxy)-3-thiatricyclo[7.4.0.0^{2,6}]trideca-1(9),2(6),4,7,10,12-hexaene-4-carboxylic acid] |  | 11 | 
O=C(O)COc1c(C(=O)O)sc2c1sc1c(NC3CCCCC3)cccc12 [5-(carboxymethoxy)-9-(cyclohexylamino)-3,7-dithiatricyclo[6.4.0.0^{2,6}]dodeca-1(8),2(6),4,9,11-pentaene-4-carboxylic acid] |  | 1.7 | 
O=C(O)COc1c(C(=O)O)sc2c1sc1c(NCC3CCCCC3)cccc12 [5-(carboxymethoxy)-9-[(cyclohexylmethyl)amino]-3,7-dithiatricyclo[6.4.0.0^{2,6}]dodeca-1(8),2(6),4,9,11-pentaene-4-carboxylic acid] |  | 0.92 | 
O=C(O)COc1c(C(=O)O)sc2c1sc1c(Cl)cccc12 [5-(carboxymethoxy)-9-chloro-3,7-dithiatricyclo[6.4.0.0^{2,6}]dodeca-1(8),2(6),4,9,11-pentaene-4-carboxylic acid] |  | 10 | 
O=C(O)COc1c(C(=O)O)sc2c1sc1cc(NC3CCCCC3)ccc12 [5-(carboxymethoxy)-10-(cyclohexylamino)-3,7-dithiatricyclo[6.4.0.0^{2,6}]dodeca-1(8),2(6),4,9,11-pentaene-4-carboxylic acid] |  | 0.74 | 
O=C(O)COc1c(C(=O)O)sc2c1sc1cc(NC3CCOCC3)ccc12 [5-(carboxymethoxy)-10-(oxan-4-ylamino)-3,7-dithiatricyclo[6.4.0.0^{2,6}]dodeca-1(8),2(6),4,9,11-pentaene-4-carboxylic acid] |  | 2.4 | 
O=C(O)COc1c(C(=O)O)sc2c1sc1cc(NCC3CCCCC3)ccc12 [5-(carboxymethoxy)-10-[(cyclohexylmethyl)amino]-3,7-dithiatricyclo[6.4.0.0^{2,6}]dodeca-1(8),2(6),4,9,11-pentaene-4-carboxylic acid] |  | 0.68 | 
O=C(O)COc1c(C(=O)O)sc2c1sc1cc(Cl)ccc12 [5-(carboxymethoxy)-10-chloro-3,7-dithiatricyclo[6.4.0.0^{2,6}]dodeca-1(8),2(6),4,9,11-pentaene-4-carboxylic acid] |  | 3.5 | 
CCS(=O)(=O)N1CCC(Nc2ccc3c(c2)sc2c(OCC(=O)O)c(C(=O)O)sc23)CC1 [5-(carboxymethoxy)-10-{[1-(ethanesulfonyl)piperidin-4-yl]amino}-3,7-dithiatricyclo[6.4.0.0^{2,6}]dodeca-1(8),2(6),4,9,11-pentaene-4-carboxylic acid] |  | 1.6 | 
O=C(O)COc1c(C(=O)O)sc2c1sc1cc(NC3CCN(S(=O)(=O)Cc4ccccc4)CC3)ccc12 [5-(carboxymethoxy)-10-{[1-(phenylmethane)sulfonylpiperidin-4-yl]amino}-3,7-dithiatricyclo[6.4.0.0^{2,6}]dodeca-1(8),2(6),4,9,11-pentaene-4-carboxylic acid] |  |  | Ki [2]: 0.38 µM
O=C(O)COc1c(C(=O)O)sc2cc(Br)ccc12 [6-bromo-3-(carboxymethoxy)-1-benzothiophene-2-carboxylic acid] | 42 |  | 
